Assay results from patent US11365199B2, “Pyrazole compounds as modulators of FSHR and uses thereof” (Merck Patent GmbH, priority 2013, dated 2022).
Read-outs that look alike come from different tables or passages of the source.

Target: T1, FSHR (Homo sapiens, UniProt P23945)
T1 construct: expressed in transfected cells; host or cells: CHO (Cho-FSHR-LUC-1-1-43)
T1 sequence (P23945 18-695): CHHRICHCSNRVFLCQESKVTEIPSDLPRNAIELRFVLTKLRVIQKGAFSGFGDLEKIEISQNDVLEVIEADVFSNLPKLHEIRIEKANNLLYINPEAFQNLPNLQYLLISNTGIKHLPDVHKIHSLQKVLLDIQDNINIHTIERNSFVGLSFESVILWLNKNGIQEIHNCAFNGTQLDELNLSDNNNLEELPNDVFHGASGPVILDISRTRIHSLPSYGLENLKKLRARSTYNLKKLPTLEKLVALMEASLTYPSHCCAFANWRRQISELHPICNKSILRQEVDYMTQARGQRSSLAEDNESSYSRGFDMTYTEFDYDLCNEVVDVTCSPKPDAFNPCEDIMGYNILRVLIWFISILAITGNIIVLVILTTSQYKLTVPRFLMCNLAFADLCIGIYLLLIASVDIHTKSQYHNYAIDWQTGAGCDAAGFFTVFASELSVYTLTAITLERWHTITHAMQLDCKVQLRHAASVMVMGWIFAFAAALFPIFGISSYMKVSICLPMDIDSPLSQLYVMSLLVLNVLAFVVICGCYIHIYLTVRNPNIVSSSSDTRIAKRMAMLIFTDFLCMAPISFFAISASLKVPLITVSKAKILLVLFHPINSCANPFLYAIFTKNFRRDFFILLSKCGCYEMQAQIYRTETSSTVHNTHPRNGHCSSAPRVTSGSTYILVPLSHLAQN
Assay: EC50 of cyclic AMP production in CHO FSHR cells + EC20 FSH (Assay A)
Assay type: cell-based
Method: EC50 of Cyclic AMP Production in CHO FSHR Cells+EC20 FSH (Assay A)
2500 Cho-FSHR-LUC-1-1-43 cells were plated per well in 5 μl of phenol red free DMEM/F12+1% FBS. Cells were plated in 384 well, solid white low volume plates (Greiner 784075) by Multidrop. Cells were assayed by adding 100 μl of 2×EC20 FSH/IBMX in DMEM/F12+0.1% BSA) by Multidrop to 2 μl of test compound stamped in 384 well plates (compounds are diluted 1:50). The final FSH concentration was […], and the final IBMX concentration was 200 μM. The compound plate map was as follows: Column 1: 2 μl of DMSO; Column 2: 2 μl of DMSO; Columns 3-12 and 13-24: 2 μl of test compound, diluted 1:4 in 100% DMSO, or 2 μl of FSH, diluted 1:4 in DMEM/F12+0.1% BSA. The starting concentration for FSH was 50 nM (final concentration was 0.5 nM). Furthermore, Column 23 contained 2 μl of EC100 FSH reference (100×) (diluted in DMEM/F12+0.1% BSA) at a final concentration of 0.5 nM, and Column 24 contained 2 μl of 1 mM AS707664/2 reference compound 2. 5 μl of compound+EC20 FSH mixture were transferred to cell plates (1:2 dilution into 5 μl of cell media) The plates were incubated at 37° C. for 1 h. 10 μl of mixed HTRF (CisBio #62AM4PEC) reagents were added per well and incubated at room temperature for 1 h. The plates were read on Envision using the cAMP HTRF—low volume 384 well protocol. The readout was the calculated fluorescence ratio (665 nm/620 nm). Values given in percent (%) indicate the percental effect (response) at a certain concentration of agonist relative to the maximum response of the FSH standard.

[1] = CHO FSHR cells + EC20 FSH, cAMP HTRF, read-out: Assay A: EC50 of cyclic AMP production

| EC50 [1] | SMILES | EC50 |
| --- | --- | --- |
| 0.1 to 1 µM | COc1cc2c(cc1-c1ccnn1C)-c1c(c(C(=O)NC3(C)COC3)nn1-c1ccsc1)CO2 [Compound 109, 7-Methoxy-8-(2-methyl-2H-pyrazol-3-yl)-1-thiophen-3-yl-1,4-dihydro-chromeno[4,3-c]pyrazole-3-carboxylic acid (3-methyl-oxetan-3-yl)-amide] | – |
| < 0.1 µM | COc1cc2c(cc1-c1ccnn1C)-c1c(c(C(=O)N(C)C(C)(C)C)nn1-c1ccsc1)CO2 [Compound 64, 7-Methoxy-8-(2-methyl-2H-pyrazol-3-yl)-1-thiophen-3-yl-1,4-dihydro-chromeno[4,3-c]pyrazole-3-carboxylic acid tert-butyl-methyl-amide] | – |
| – | COCC(C)(C)N(C)C(=O)c1nn(-c2ccsc2)c2c1COc1cc(OC)c(C=C(C)C)cc1-2 [Compound 31] | < 0.1 µM |
| > 5 µM | [2H]C([2H])([2H])NC(=O)[C@H]1CCC[C@@H](N(C(=O)c2nn(-c3ccsc3)c3c2COc2cc(OC)c(C=C(C)C)cc2-3)C([2H])([2H])[2H])C1 [Compound 107] | – |
| < 0.1 µM | COc1cc2c(cc1C=C(C)C)-c1c(c(C(=O)N3CCCC(C(N)=O)CC3)nn1-c1ccsc1)CO2 (stereo not shown) [Compound 43, 1-[7-methoxy-8-(2-methyl-propenyl)-1-thiophen-3-yl-1,4-dihydro-chromeno[4,3-c]pyrazole-3-carbonyl]-azepane-4-carboxylic Acid Amide] | – |
| 1 to 5 µM | COc1cc2c(cc1C=C(C)C)-c1c(c(C(=O)N3CCCC(NC(=O)C4CCC4)CC3)nn1-c1ccsc1)CO2 (stereo not shown) [Compound 37, Cyclobutanecarboxylic acid {1-[7-methoxy-8-(2-methyl-propenyl)-1-thiophen-3-yl-1,4-dihydro-chromeno[4,3-c]pyrazole-3-carbonyl]-azepan-4-yl}-amide] | – |
| > 5 µM | COc1ccc2c(c1)OCc1c(C(=O)N3CCOCC3(C)C)nn(-c3ccsc3)c1-2 [Compound 128, (3,3-Dimethyl-morpholin-4-yl)-(7-methoxy-1-thiophen-3-yl-1,4-dihydro-chromeno[4,3-c]pyrazol-3-yl)-methanone] | – |
| 0.1 to 1 µM | COc1cc2c(cc1C1=CCCN(C)C1)-c1c(c(C(=O)N(C)C(C)(C)C)nn1-c1ccsc1)CO2 [Compound 134, 7-Methoxy-8-(1-methyl-1,2,5,6-tetrahydro-pyridin-3-yl)-1-thiophen-3-yl-1,4-dihydro-chromeno[4,3-c]pyrazole-3-carboxylic acid tert-butyl-methyl-amide] | – |
| 0.1 to 1 µM | [2H]C([2H])([2H])N(CCNC(=O)c1nn(-c2ccsc2)c2c1COc1cc(OC)c(C=C(C)C)cc1-2)C(C)=O [Compound 60] | – |
| > 5 µM | COc1cc2c(cc1-c1ccn(C)n1)-c1c(c(C(=O)NCC3(O)COC3)nn1-c1ccsc1)CO2 [Compound 165, 7-Methoxy-8-(1-methyl-1H-pyrazol-3-yl)-1-thiophen-3-yl-1,4-dihydro-chromeno[4,3-c]pyrazole-3-carboxylic acid (3-hydroxy-oxetan-3-ylmethyl)-amide] | – |
| 1 to 5 µM | CCOC(=O)C1CCN(C(=O)c2nn(-c3ccsc3)c3c2COc2cc(OC)c(C=C(C)C)cc2-3)CC1 [Compound 14, 1-{7-Methoxy-8-(2-methyl-propenyl)-1-thiophen-3-yl-1,4-dihydro-chromeno[4,3-c]pyrazole-3-carbonyl]-piperidine-4-carboxylic acid ethyl ester] | – |
| < 0.1 µM | COc1cc2c(cc1OC(C)C)-c1c(c(C(=O)N(C)CCN(C)C(=O)C3CCC3)nn1-c1ccsc1)CO2 [Compound 29] | – |
| 1 to 5 µM | COc1cc2c(cc1S(=O)(=O)C(C)C)-c1c(c(C(=O)N3CCOCC3(C)C)nn1-c1ccsc1)CO2 [Compound 112, (3,3-Dimethyl-morpholin-4-yl)-[7-methoxy-8-(propane-2-sulfonyl)-1-thiophen-3-yl-1,4-dihydro-chromeno[4,3-c]pyrazol-3-yl]-methanone] | – |
| < 0.1 µM | COc1cc2c(cc1-c1cncn1C)-c1c(c(C(=O)N(C)C(C)(C)C)nn1-c1ccsc1)CO2 [Compound 130, 7-Methoxy-8-(3-methyl-3H-imidazol-4-yl)-1-thiophen-3-yl-1,4-dihydro-chromeno[4,3-c]pyrazole-3-carboxylic acid tert-butyl-methyl-amide] | – |
| < 0.1 µM | COc1cc2c(cc1-c1sccc1C)-c1c(c(C(=O)N(C)C(C)(C)C)nn1-c1ccsc1)CO2 [Compound 88, 7-Methoxy-8-(3-methyl-thiophen-2-yl)-1-thiophen-3-yl-1,4-dihydro-chromeno[4,3-c]pyrazole-3-carboxylic acid tert-butyl-methyl-amide] | – |
| < 0.1 µM | COc1cc2c(cc1-c1cnn(CC(C)C)c1)-c1c(c(C(=O)N3CCOCC3(C)C)nn1-c1ccsc1)CO2 [Compound 192, (3,3-Dimethyl-morpholin-4-yl)-[8-(1-isobutyl-1H-pyrazol-4-yl)-7-methoxy-1-thiophen-3-yl-1,4-dihydro-chromeno[4,3-c]pyrazol-3-yl]-methanone] | – |
| 1 to 5 µM | COc1cc2c(cc1-c1ccn(C)n1)-c1c(c(C(=O)N3CCN(C(=O)OC(C)(C)C)CC34CC4)nn1-c1ccsc1)CO2 [Compound 158, 4-[7-Methoxy-8-(1-methyl-1H-pyrazol-3-yl)-1-thiophen-3-yl-1,4-dihydro-chromeno[4,3-c]pyrazole-3-carbonyl]-4,7-diaza-spiro[2.5]octane-7-carboxylic acid tert-butyl ester] | – |
| 1 to 5 µM | COc1cc2c(cc1-c1ccn(C)n1)-c1c(c(C(=O)NC3CC(O)C3)nn1-c1ccsc1)CO2 (stereo not shown) [Compound 137, 7-Methoxy-8-(1-methyl-1H-pyrazol-3-yl)-1-thiophen-3-yl-1,4-dihydro-chromeno[4,3-c]pyrazole-3-carboxylic acid (3-hydroxy-cyclobutyl)-amide] | – |
| < 0.1 µM | COc1cc2c(cc1C#N)-c1c(c(C(=O)N3CCOCC3(C)C)nn1-c1ccsc1)CO2 [Compound 86, 3-(3,3-Dimethyl-morpholine-4-carbonyl)-7-methoxy-1-thiophen-3-yl-1,4-dihydro-chromeno[4,3-c]pyrazole-8-carbonitrile] | – |
| < 0.1 µM | COc1cc2c(cc1-c1ccn(C)c1)-c1c(c(C(=O)N(C)C(C)(C)C)nn1-c1ccsc1)CO2 [Compound 55, 7-Methoxy-8-(1-methyl-1H-pyrrol-3-yl)-1-thiophen-3-yl-1,4-dihydro-chromeno[4,3-c]pyrazole-3-carboxylic acid tert-butyl-methyl-amide] | – |
| > 5 µM | [2H]C([2H])([2H])N(CCCN(C(=O)c1nn(-c2ccsc2)c2c1COc1cc(OC)c(CC(C)C)cc1-2)C([2H])([2H])[2H])C(C)=O [Compound 84] | – |
| < 0.1 µM | [2H]C([2H])([2H])OCC1(C)CCCN1C(=O)c1nn(-c2ccsc2)c2c1COc1cc(OC)c(C=C(C)C)cc1-2 (stereo not shown) [Compound 51] | – |
| 0.1 to 1 µM | COc1cc2c(cc1C=C(C)C)-c1c(c(C(=O)N3CCOCC3)nn1-c1ccsc1)CO2 [Compound 117, [7-Methoxy-8-(2-methyl-propenyl)-1-thiophen-3-yl-1,4-dihydro-chromeno[4,3-c]pyrazol-3-yl]-morpholin-4-yl-methanone] | – |
| 0.1 to 1 µM | COc1cc2c(cc1-c1ccn(C)n1)-c1c(c(C(=O)N3CCCC34COC4)nn1-c1ccsc1)CO2 [Compound 174, [7-Methoxy-8-(1-methyl-1H-pyrazol-3-yl)-1-thiophen-3-yl-1,4-dihydro-chromeno[4,3-c]pyrazol-3-yl]-(2-oxa-5-aza-spiro[3.4]oct-5-yl)-methanone] | – |
| 1 to 5 µM | COc1cc2c(cc1C=C(C)C)-c1c(c(C(=O)NCCCNC(=O)C3CCC3)nn1-c1ccsc1)CO2 [Compound 57, 7-methoxy-8-(2-methyl-propenyl)-1-thiophen-3-yl-1,4-dihydro-chromeno[4,3-c]pyrazole-3-carboxylic Acid [3-(cyclobutanecarbonyl-amino)-propyl]-amide] | – |
